Laboratory results as given in the CheMixHub viscosity set.
“And” between values parts separate entries of the source, which are not always exact repeats. Equal entries are not always repeated. ± gives the uncertainty stated by the source.

Question: Which viscosity (293.15 K, 100 kPa) does the source give for `O` here?
Answer: The viscosity was 0.994 ± 0.012 mPa·s and 0.991 ± 0.08 mPa·s.

Question: And the viscosity (295 K, 101.3 kPa)?
Answer: Its viscosity is 0.975 ± 0.07 mPa·s.

Question: And the viscosity (295.15 K, 101 kPa)?
Answer: The viscosity was 0.955 ± 0.009 mPa·s and 0.9548 ± 0.01 mPa·s.

Question: What about the viscosity (295.65 K, 100.9 kPa) of the same compound?
Answer: Its viscosity is 0.9432 ± 0.029 mPa·s.

Question: And the viscosity (297.15 K, 101 kPa)?
Answer: Its viscosity is 0.9111 ± 0.0096 mPa·s.

Question: What about the viscosity (298.15 K, 100 kPa) of the same compound?
Answer: The viscosity was 0.884 ± 0.071 mPa·s and 0.901 ± 0.055 mPa·s.

Question: What about the viscosity (298.15 K, 101.3 kPa) of the same compound?
Answer: The viscosity was 0.876 ± 0.036 mPa·s.

Question: What about the viscosity (298.15 K, 101.33 kPa) of the same compound?
Answer: The viscosity was 0.918 ± 0.025 mPa·s.

Question: And the viscosity (299.15 K, 101 kPa)?
Answer: Its viscosity is 0.8705 ± 0.0092 mPa·s.

Question: And the viscosity (300.15 K, 101 kPa)?
Answer: The viscosity was 0.797 ± 0.021 mPa·s.

Question: And the viscosity (300.65 K, 100.9 kPa)?
Answer: Its viscosity is 0.8417 ± 0.026 mPa·s.

Question: And the viscosity (301.15 K, 101 kPa)?
Answer: The viscosity was 0.8327 ± 0.0088 mPa·s.

Question: What about the viscosity (302.15 K, 101 kPa) of the same compound?
Answer: Its viscosity is 0.917 ± 0.2 mPa·s.

Question: And the viscosity (303.15 K, 100 kPa)?
Answer: Its viscosity is 0.796 ± 0.064 mPa·s and 0.81 ± 0.04 mPa·s.

Question: And the viscosity (305.15 K, 101 kPa)?
Answer: Its viscosity is 0.816 ± 0.18 mPa·s and 0.717 ± 0.02 mPa·s.

Question: What about the viscosity (305.65 K, 100.9 kPa) of the same compound?
Answer: Its viscosity is 0.7567 ± 0.023 mPa·s.

Question: What about the viscosity (307.15 K, 101 kPa) of the same compound?
Answer: Its viscosity is 0.734 ± 0.0077 mPa·s.

Question: What about the viscosity (308.15 K, 101.3 kPa) of the same compound?
Answer: Its viscosity is 0.716 ± 0.015 mPa·s and 0.708 ± 0.029 mPa·s and 0.717 ± 0.08 mPa·s.

Question: What about the viscosity (309.15 K, 101 kPa) of the same compound?
Answer: Its viscosity is 0.7052 ± 0.0074 mPa·s.

Question: And the viscosity (310.65 K, 100.9 kPa)?
Answer: Its viscosity is 0.6848 ± 0.021 mPa·s.

Question: What about the viscosity (311.15 K, 101 kPa) of the same compound?
Answer: The viscosity was 0.6833 ± 0.015 mPa·s and 0.6783 ± 0.0072 mPa·s.

Question: What about the viscosity (313.15 K, 100 kPa) of the same compound?
Answer: The viscosity was 0.662 ± 0.053 mPa·s and 0.6579 ± 0.027 mPa·s and 0.66 ± 0.04 mPa·s.

Question: And the viscosity (313.15 K, 101.33 kPa)?
Answer: The viscosity was 0.5631 ± 0.021 mPa·s and 0.658 ± 0.018 mPa·s.

Question: What about the viscosity (315.15 K, 101 kPa) of the same compound?
Answer: Its viscosity is 0.6291 ± 0.0067 mPa·s.

Question: And the viscosity (316.15 K, 101 kPa)?
Answer: The viscosity was 0.6189 ± 0.013 mPa·s.

Question: And the viscosity (317.15 K, 101 kPa)?
Answer: The viscosity was 0.6067 ± 0.0064 mPa·s.

Question: What about the viscosity (318.15 K, 101.3 kPa) of the same compound?
Answer: The viscosity was 0.594 ± 0.013 mPa·s and 0.589 ± 0.024 mPa·s and 0.592 ± 0.08 mPa·s.

Question: What about the viscosity (318.15 K, 101.33 kPa) of the same compound?
Answer: The viscosity was 0.6 ± 0.004 mPa·s and 0.6 ± 0.03 mPa·s.

Question: And the viscosity (319.15 K, 101 kPa)?
Answer: The viscosity was 0.5856 ± 0.0062 mPa·s.

Question: And the viscosity (320.15 K, 101 kPa)?
Answer: Its viscosity is 0.5748 ± 0.012 mPa·s.

Question: What about the viscosity (320.65 K, 100.9 kPa) of the same compound?
Answer: The viscosity was 0.5706 ± 0.018 mPa·s.

Question: And the viscosity (321.15 K, 101 kPa)?
Answer: Its viscosity is 0.5656 ± 0.006 mPa·s.

Question: What about the viscosity (322.9 K, 101 kPa) of the same compound?
Answer: Its viscosity is 0.5516 ± 0.015 mPa·s.

Question: And the viscosity (323.15 K, 100 kPa)?
Answer: The viscosity was 0.567 ± 0.007 mPa·s and 0.566 ± 0.045 mPa·s.

Question: What about the viscosity (323.15 K, 101 kPa) of the same compound?
Answer: Its viscosity is 0.56 ± 0.17 mPa·s and 0.5829 ± 0.008 mPa·s and 0.5538 mPa·s.
